Target: human Nav1.7 (Homo sapiens (Human), UniProt Q15858)
Assay: FRET-based membrane potential assay, recombinant human sodium channel Nav1.7
Type: cell-based
Settings: HEK293 cells stably expressing recombinant human Nav1.7; depolarization with veratridine (EC80) + scorpion venom
Method in brief: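 IC50 derived by four-parameter Hill fit of percent inhibition of depolarization, measured as peak F440-480/F565-625 ratio over baseline. Stable human Nav1.7 HEK293 cells, dye-loaded with CC2-DMPE and DiSBAC2(3)/VABSC-1 at room temperature, received compound 3 min ahead of veratridine (EC80) plus scorpion venom.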

Sequence of human Nav1.7 (Q15858 whole entry): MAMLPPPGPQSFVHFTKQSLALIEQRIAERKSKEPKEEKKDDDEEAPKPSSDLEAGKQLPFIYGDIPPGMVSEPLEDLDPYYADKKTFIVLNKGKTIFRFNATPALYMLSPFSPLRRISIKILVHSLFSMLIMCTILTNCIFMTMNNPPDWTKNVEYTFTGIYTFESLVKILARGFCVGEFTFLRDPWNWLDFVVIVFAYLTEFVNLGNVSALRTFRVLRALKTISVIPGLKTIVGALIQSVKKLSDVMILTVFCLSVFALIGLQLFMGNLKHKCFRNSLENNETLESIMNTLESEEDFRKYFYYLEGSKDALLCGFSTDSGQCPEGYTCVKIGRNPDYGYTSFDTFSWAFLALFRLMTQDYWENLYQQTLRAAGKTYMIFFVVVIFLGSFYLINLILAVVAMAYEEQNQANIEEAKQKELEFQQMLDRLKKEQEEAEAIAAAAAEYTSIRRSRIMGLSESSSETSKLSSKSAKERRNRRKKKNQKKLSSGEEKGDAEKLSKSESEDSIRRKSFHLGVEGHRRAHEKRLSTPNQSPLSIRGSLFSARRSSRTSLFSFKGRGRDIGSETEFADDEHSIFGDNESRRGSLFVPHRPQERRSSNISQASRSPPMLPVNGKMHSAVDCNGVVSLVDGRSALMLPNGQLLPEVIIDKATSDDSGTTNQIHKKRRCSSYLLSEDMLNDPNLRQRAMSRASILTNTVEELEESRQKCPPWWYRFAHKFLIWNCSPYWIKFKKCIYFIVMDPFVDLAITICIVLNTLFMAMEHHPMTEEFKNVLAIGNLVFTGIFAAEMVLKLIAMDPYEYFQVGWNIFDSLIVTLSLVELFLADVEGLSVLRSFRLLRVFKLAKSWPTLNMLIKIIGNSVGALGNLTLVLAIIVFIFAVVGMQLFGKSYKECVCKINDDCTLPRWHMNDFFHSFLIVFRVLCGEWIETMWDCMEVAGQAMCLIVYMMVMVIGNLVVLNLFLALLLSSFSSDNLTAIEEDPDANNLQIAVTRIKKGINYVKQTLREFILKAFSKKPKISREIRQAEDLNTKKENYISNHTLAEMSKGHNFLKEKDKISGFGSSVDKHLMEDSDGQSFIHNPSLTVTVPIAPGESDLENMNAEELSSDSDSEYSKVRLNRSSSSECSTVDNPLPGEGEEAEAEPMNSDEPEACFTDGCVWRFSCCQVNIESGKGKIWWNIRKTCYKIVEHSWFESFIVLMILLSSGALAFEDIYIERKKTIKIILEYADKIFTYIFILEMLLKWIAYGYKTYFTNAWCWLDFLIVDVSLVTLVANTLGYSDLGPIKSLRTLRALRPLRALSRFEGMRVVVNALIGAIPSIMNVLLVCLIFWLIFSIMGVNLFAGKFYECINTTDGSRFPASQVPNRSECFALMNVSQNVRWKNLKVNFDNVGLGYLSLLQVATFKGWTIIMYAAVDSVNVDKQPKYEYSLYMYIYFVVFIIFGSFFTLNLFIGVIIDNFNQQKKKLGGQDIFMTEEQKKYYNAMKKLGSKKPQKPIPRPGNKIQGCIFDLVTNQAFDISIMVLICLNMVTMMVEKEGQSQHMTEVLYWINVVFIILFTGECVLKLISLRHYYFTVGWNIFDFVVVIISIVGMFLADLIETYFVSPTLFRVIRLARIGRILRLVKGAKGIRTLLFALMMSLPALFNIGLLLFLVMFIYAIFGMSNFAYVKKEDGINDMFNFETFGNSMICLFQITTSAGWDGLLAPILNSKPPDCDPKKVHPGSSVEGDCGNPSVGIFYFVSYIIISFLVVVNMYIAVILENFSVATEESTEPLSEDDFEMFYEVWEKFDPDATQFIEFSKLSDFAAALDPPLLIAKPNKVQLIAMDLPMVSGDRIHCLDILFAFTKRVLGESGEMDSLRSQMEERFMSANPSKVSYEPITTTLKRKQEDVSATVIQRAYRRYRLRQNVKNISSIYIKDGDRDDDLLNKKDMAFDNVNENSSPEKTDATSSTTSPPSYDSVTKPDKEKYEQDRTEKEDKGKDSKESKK

First: O=C1N(CC(=O)N2C[C@@H](O)C[C@@H]2c2cc(F)ccc2F)CCN1c1cccc2c1cnn2-c1ccccc1F [Example 122, 1-{2-[(2R,4S)-2-(2,5-difluorophenyl)-4-hydroxypyrrolidin-1-yl]-2-oxoethyl}-3-[1-(2-fluorophenyl)-1H-indazol-4-yl]imidazolidin-2-one]
Second: O=C(CN1CCN(c2cccc3c2cnn3-c2ccccc2F)C1=O)N1CC(F)C(F)C1 (stereo not shown) [Example 206, 1-[2-(3,4-difluoropyrrolidin-1-yl)-2-oxoethyl]-3-[1-(2-fluorophenyl)-1H-indazol-4-yl]imidazolidin-2-one]
The IC50 of the first is 2.2-fold higher: 2.3 µM for the first, 1.06 µM for the second. The second is the more potent here.

First: CC(C)(C)CNC(=O)CN1CCN(c2cccc3c2cnn3-c2ccccc2F)C1=O [Example 357, N-(2,2-dimethylpropyl)-2-{3-[1-(2-fluorophenyl)-1H-indazol-4-yl]-2-oxoimidazolidin-1-yl}acetamide]
Second: CC(C)(C)C(=O)N1CCN(c2cccc3c2cnn3-c2ccccc2F)C1=O [Example 60, 1-(2,2-dimethylpropanoyl)-3-[1-(2-fluorophenyl)-1H-indazol-4-yl]imidazolidin-2-one]
The IC50 of the first is 1.5-fold higher: 3.06 µM for the first, 1.99 µM for the second. The second is the more potent here.

Compared with `O=C1N(CC(=O)N2CC3C[C@@H]4CC2C[C@H](C3)C4)CCN1c1cccc2c1cnn2-c1ccccc1F` [Example 107, 1-{2-[(1R,3r,6s,8S)-4-azatricyclo[4.3.1.1^3,8]undec-4-yl]-2-oxoethyl}-3-[1-(2-fluorophenyl)-1H-indazol-4-yl]imidazolidin-2-one], `C[C@@H]1COCCN1C(=O)CN1CCN(c2cccc3c2cnn3-c2ccccc2F)C1=O` [Example 113, 1-[1-(2-fluorophenyl)-1H-indazol-4-yl]-3-{2-[(3R)-3-methylmorpholin-4-yl]-2-oxoethyl}imidazolidin-2-one] is 1.8-fold higher in IC50: 1.28 µM for the first, 2.27 µM for the second. The first is the more potent here.

Compared with `O=C1N(c2cncc(N3CCOCC3)c2)CCN1c1cccc2c1cnn2-c1ccccc1F` [Example 207, 1-[1-(2-fluorophenyl)-1H-indazol-4-yl]-3-[5-(morpholin-4-yl)pyridin-3-yl]imidazolidin-2-one], `COc1cncc(N2CCN(c3cccc4c3cnn4-c3ccccc3F)C2=O)c1` [Example 230, 1-[1-(2-fluorophenyl)-1H-indazol-4-yl]-3-(5-methoxypyridin-3-yl)imidazolidin-2-one] is 2-fold higher in IC50: 1.87 µM for the first, 3.73 µM for the second.

`C[C@@H]1CN(c2cccc3c2cnn3-c2ccccc2F)C(=O)N1C(=O)OC(C)(C)C` [Example 241, tert-butyl (5R)-3-[1-(2-fluorophenyl)-1H-indazol-4-yl]-5-methyl-2-oxoimidazolidine-1-carboxylate] and `CC(C)CCC(=O)N1CCN(c2cccc3c2cnn3-c2ccccc2F)C1=O` [Example 76, 1-[1-(2-fluorophenyl)-1H-indazol-4-yl]-3-(4-methylpentanoyl)imidazolidin-2-one] are within 1.5-fold of each other in IC50: 2.35 µM for the first, 2.29 µM for the second.

Going from `O=C1N(c2cccc3c2cnn3-c2ccccc2F)CCN1[C@H]1CO[C@H](c2cccc(F)c2)C1` [Example 196, 1-[1-(2-fluorophenyl)-1H-indazol-4-yl]-3-[(3R,5S)-5-(3-fluorophenyl)tetrahydrofuran-3-yl]imidazolidin-2-one] to `O=C1N(CC2CCO2)CCN1c1cccc2c1cnn2-c1ccccc1F` (stereo not shown) [Example 223, 1-[1-(2-fluorophenyl)-1H-indazol-4-yl]-3-(oxetan-2-ylmethyl)imidazolidin-2-one], the IC50 rises from 4.31 µM to 11.2 µM (2.6-fold). The first is the more potent here.

First: O=C(CN1CCN(c2cccc3c2cnn3-c2ccccc2F)C1=O)C1CCC1 [Example 164, 1-(2-cyclobutyl-2-oxoethyl)-3-[1-(2-fluorophenyl)-1H-indazol-4-yl]imidazolidin-2-one]
Second: O=C(CN1CCN(c2cccc3c2cnn3-c2ccccc2F)C1=O)N1CCC1 [Example 94, 1-[2-(azetidin-1-yl)-2-oxoethyl]-3-[1-(2-fluorophenyl)-1H-indazol-4-yl]imidazolidin-2-one]
The IC50 of the first is 19-fold lower: 0.635 µM for the first, 11.9 µM for the second.

Compared with `Cc1ccccc1CNC(=O)CN1CCN(c2cccc3c2cnn3-c2ccccc2F)C1=O` [Example 175, 2-{3-[1-(2-fluorophenyl)-1H-indazol-4-yl]-2-oxoimidazolidin-1-yl}-N-(2-methylbenzyl)acetamide], `O=C(CN1CCN(c2cccc3c2cnn3-c2ccccc2F)C1=O)NCc1cc(F)cc(F)c1` [Example 177, N-(3,5-difluorobenzyl)-2-{3-[1-(2-fluorophenyl)-1H-indazol-4-yl]-2-oxoimidazolidin-1-yl}acetamide] is 2.7-fold lower in IC50: 2.65 µM for the first, 0.965 µM for the second.

`O=C1CC(C(=O)N2CCN(c3cccc4c3cnn4-c3ccccc3F)C2=O)C1` [Example 61, 1-[1-(2-fluorophenyl)-1H-indazol-4-yl]-3-[(3-oxocyclobutyl)carbonyl]imidazolidin-2-one] and `CC(C)S(=O)(=O)N1CCN(c2cccc3c2cnn3-c2ccccc2F)C1=O` [Example 82, 1-[1-(2-fluorophenyl)-1H-indazol-4-yl]-3-(isopropylsulfonyl)imidazolidin-2-one] are within 1.5-fold of each other in IC50: 2.24 µM for the first, 2.46 µM for the second.

`O=C(CN1CCN(c2cccc3c2cnn3-c2ccccc2F)C1=O)c1ccc2c(c1)OCO2` [Example 153, 1-[2-(1,3-benzodioxol-5-yl)-2-oxoethyl]-3-[1-(2-fluorophenyl)-1H-indazol-4-yl]imidazolidin-2-one] and `O=C1N(CC2CC2(F)F)CCN1c1cccc2c1cnn2-c1ccccc1F` (stereo not shown) [Example 189, 1-[(2,2-difluorocyclopropyl)methyl]-3-[1-(2-fluorophenyl)-1H-indazol-4-yl]imidazolidin-2-one] are within 1.5-fold of each other in IC50: 1.32 µM for the first, 1.02 µM for the second.

Going from `CC(C)C[C@](C)(O)CN1CCN(c2cccc3c2cnn3-c2ccccc2F)C1=O` [Example 168, 1-[1-(2-fluorophenyl)-1H-indazol-4-yl]-3-[(2S)-2-hydroxy-2,4-dimethylpentyl]imidazolidin-2-one] to `CC(C)C[C@H](O)CN1CCN(c2cccc3c2cnn3-c2ccccc2F)C1=O` [Example 156, 1-[1-(2-fluorophenyl)-1H-indazol-4-yl]-3-[(2S)-2-hydroxy-4-methylpentyl]imidazolidin-2-one], the IC50 rises from 0.816 µM to 1.35 µM (1.7-fold).

Going from `CC(C)c1nnc(CN2CCN(c3cccc4c3cnn4-c3ccccc3F)C2=O)o1` [Example 256, 1-[1-(2-fluorophenyl)-1H-indazol-4-yl]-3-[(5-isopropyl-1,3,4-oxadiazol-2-yl)methyl]imidazolidin-2-one] to `CC(C)c1cnc(CN2CCN(c3cccc4c3cnn4-c3ccccc3F)C2=O)o1` [Example 237, 1-[1-(2-fluorophenyl)-1H-indazol-4-yl]-3-[(5-isopropyl-1,3-oxazol-2-yl)methyl]imidazolidin-2-one], the IC50 falls from 3.12 µM to 0.667 µM (4.7-fold). The second is the more potent here.

`O=C1N(c2cccc3c2cnn3-c2ccccc2F)CCN1S(=O)(=O)C1CCCC1` [Example 77, 1-(cyclopentylsulfonyl)-3-[1-(2-fluorophenyl)-1H-indazol-4-yl]imidazolidin-2-one] and `CCCS(=O)(=O)N1CCN(c2cccc3c2cnn3-c2ccccc2F)C1=O` [Example 81, 1-[1-(2-fluorophenyl)-1H-indazol-4-yl]-3-(propylsulfonyl)imidazolidin-2-one] are within 1.5-fold of each other in IC50: 2.79 µM for the first, 4.08 µM for the second.

`O=C(CN1CCN(c2cccc3c2cnn3-c2ccccc2F)C1=O)N1CCC(C(F)F)C1` (stereo not shown) [Example 330, 1-{2-[3-(difluoromethyl)pyrrolidin-1-yl]-2-oxoethyl}-3-[1-(2-fluorophenyl)-1H-indazol-4-yl]imidazolidin-2-one] and `O=C(CN1CCN(c2cccc3c2cnn3-c2ccccc2F)C1=O)N1CCN2CCCC2C1` (stereo not shown) [Example 66, 1-[1-(2-fluorophenyl)-1H-indazol-4-yl]-3-[2-(hexahydropyrrolo[1,2-c]pyrazin-2(1H)-yl)-2-oxoethyl]imidazolidin-2-one] are within 1.5-fold of each other in IC50: 1.15 µM for the first, 0.804 µM for the second.

Compared with `O=C(CN1CCN(c2cccc3c2cnn3-c2ccccc2F)C1=O)N1C[C@@H]2[C@@H]3CC[C@@H](C3)[C@@H]2C1` [Example 111, 1-[1-(2-fluorophenyl)-1H-indazol-4-yl]-3-{2-[(3aR,4R,7S,7aS)-octahydro-2H-4,7-methanoisoindol-2-yl]-2-oxoethyl}imidazolidin-2-one], `O=C(CN1CCN(c2cccc3c2cnn3-c2ccccc2F)C1=O)NC1CCC(F)(F)CC1` [Example 356, N-(4,4-difluorocyclohexyl)-2-{3-[1-(2-fluorophenyl)-1H-indazol-4-yl]-2-oxoimidazolidin-1-yl}acetamide] is 2.2-fold higher in IC50: 0.835 µM for the first, 1.86 µM for the second. The first is the more potent here.

First: Cc1cnc(CN2CCN(c3cccc4c3cnn4-c3ccccc3F)C2=O)s1 [Example 263, 1-[1-(2-fluorophenyl)-1H-indazol-4-yl]-3-[(5-methyl-1,3-thiazol-2-yl)methyl]imidazolidin-2-one]
Second: O=C1N(Cc2ccc(C(F)(F)F)cn2)CCN1c1cccc2c1cnn2-c1ccccc1F [Example 89, 1-[1-(2-fluorophenyl)-1H-indazol-4-yl]-3-{[5-(trifluoromethyl)pyridin-2-yl]methyl}imidazolidin-2-one]
The IC50 of the first is 21-fold lower: 0.494 µM for the first, 10.6 µM for the second.

First: O=C(CN1CCN(c2cccc3c2cnn3-c2ccccc2)C1=O)N1CCCC1 [Example 277, 1-[2-oxo-2-(pyrrolidin-1-yl)ethyl]-3-(1-phenyl-1H-indazol-4-yl)imidazolidin-2-one]
Second: O=C1N(CC(O)CC2CCC2)CCN1c1cccc2c1cnn2-c1ccccc1F (stereo not shown) [Example 141, 1-(3-cyclobutyl-2-hydroxypropyl)-3-[1-(2-fluorophenyl)-1H-indazol-4-yl]imidazolidin-2-one]
The IC50 of the first is 2.6-fold higher: 3.06 µM for the first, 1.16 µM for the second. The second is the more potent here.

Compared with `CCOC(=O)/C=C\N1CCN(c2cccc3c2cnn3-c2ccccc2F)C1=O` [Example 287, ethyl (2Z)-3-{3-[1-(2-fluorophenyl)-1H-indazol-4-yl]-2-oxoimidazolidin-1-yl}acrylate], `Cc1nnc(CN2CCCN(c3cccc4c3cnn4-c3ccccc3F)C2=O)o1` [Example 260, 1-[1-(2-fluorophenyl)-1H-indazol-4-yl]-3-[(5-methyl-1,3,4-oxadiazol-2-yl)methyl]tetrahydropyrimidin-2(1H)-one] is 3.4-fold higher in IC50: 5.8 µM for the first, 20 µM for the second.

`Cc1nnc(CN2CCN(c3cccc4c3cnn4-c3ccc(F)cc3F)C2=O)s1` [Example 234, 1-[1-(2,4-difluorophenyl)-1H-indazol-4-yl]-3-[(5-methyl-1,3,4-thiadiazol-2-yl)methyl]imidazolidin-2-one] showed an IC50 of 2.9 µM.
